BigSolDB 2.1

NC(CO)(CO)CO
solubility (mole fraction)
Conditions	293.2 K	298.2 K	303.2 K	308.2 K	313.2 K
in n-propanol	0.0038	0.005	0.0063	0.0072	0.0088
in water	0.0831	0.092	0.101	0.11	0.123
